Laboratory results from the NIST ThermoML archive (doi:10.1021/je060271a).
“And” between values parts separate entries of the source, which are not always exact repeats. Equal values may be shown once.

Conditions: 283.14 K, Liquid, Vibrating tube method

CCCCCCC(=O)OCC(COC(=O)CCCCCC)(COC(=O)CCCCCC)COC(=O)CCCCCC [pentaerythritol tetraheptanoate]
Conditions	mass density
4385.6 kPa	988.4 kg/m3
4385.7 kPa	988.4 kg/m3 and 988.5 kg/m3
4385.8 kPa	988.4 kg/m3
4385.9 kPa	988.3 kg/m3 and 988.4 kg/m3 and 988.5 kg/m3
4386 kPa	988.4 kg/m3 and 988.3 kg/m3
4386.1 kPa	988.5 kg/m3 and 988.4 kg/m3 and 988.3 kg/m3
4386.2 kPa	988.4 kg/m3
4386.5 kPa	988.5 kg/m3
4386.7 kPa	988.4 kg/m3
4387 kPa	988.3 kg/m3 and 988.4 kg/m3
4387.4 kPa	988.4 kg/m3
4388.1 kPa	988.3 kg/m3
4388.6 kPa	988.5 kg/m3
4392.2 kPa	988.4 kg/m3
4392.3 kPa	988.5 kg/m3
4393.3 kPa	988.3 kg/m3
4394 kPa	988.5 kg/m3
4394.1 kPa	988.5 kg/m3
4394.5 kPa	988.4 kg/m3
4394.7 kPa	988.4 kg/m3
4395.2 kPa	988.5 kg/m3 and 988.4 kg/m3
4395.7 kPa	988.4 kg/m3
4396 kPa	988.4 kg/m3
4396.2 kPa	988.5 kg/m3
4396.6 kPa	988.4 kg/m3
4401.3 kPa	988.5 kg/m3
4404.8 kPa	988.5 kg/m3
4409.8 kPa	988.5 kg/m3
4413.5 kPa	988.4 kg/m3
4417.1 kPa	988.4 kg/m3
4421.1 kPa	988.4 kg/m3
4425.8 kPa	988.5 kg/m3
4429.6 kPa	988.5 kg/m3
4433.4 kPa	988.4 kg/m3
4437.9 kPa	988.4 kg/m3
4441.9 kPa	988.6 kg/m3
4445.5 kPa	988.5 kg/m3
4450.3 kPa	988.4 kg/m3
4452.1 kPa	988.5 kg/m3
4456.8 kPa	988.4 kg/m3
4460.9 kPa	988.4 kg/m3
4464.4 kPa	988.4 kg/m3
4469.4 kPa	988.4 kg/m3
4473.1 kPa	988.5 kg/m3
4476.9 kPa	988.5 kg/m3
4480.5 kPa	988.4 kg/m3
4485.5 kPa	988.4 kg/m3
4489.5 kPa	988.4 kg/m3
4493.3 kPa	988.5 kg/m3
4498.2 kPa	988.4 kg/m3
4502.1 kPa	988.4 kg/m3
4505.9 kPa	988.5 kg/m3
4509.9 kPa	988.5 kg/m3
4513.7 kPa	988.6 kg/m3
4518.2 kPa	988.4 kg/m3
4521.7 kPa	988.5 kg/m3
4525.7 kPa	988.5 kg/m3
4529.3 kPa	988.5 kg/m3
4533.1 kPa	988.5 kg/m3
4539.2 kPa	988.5 kg/m3
4548.9 kPa	988.4 kg/m3
4556.8 kPa	988.5 kg/m3
4564.8 kPa	988.5 kg/m3
4572.9 kPa	988.5 kg/m3
4583.2 kPa	988.6 kg/m3
4591.3 kPa	988.5 kg/m3
4599.9 kPa	988.5 kg/m3
4607.7 kPa	988.6 kg/m3
4617.4 kPa	988.5 kg/m3
4625.9 kPa	988.5 kg/m3
4635.9 kPa	988.4 kg/m3
4644.3 kPa	988.5 kg/m3
4652.7 kPa	988.5 kg/m3
4663.3 kPa	988.5 kg/m3
4671.8 kPa	988.5 kg/m3
4680.4 kPa	988.5 kg/m3
4689.1 kPa	988.6 kg/m3
4697.7 kPa	988.5 kg/m3
4708.3 kPa	988.6 kg/m3
4717 kPa	988.6 kg/m3
4726.5 kPa	988.6 kg/m3
4737 kPa	988.7 kg/m3
4746.4 kPa	988.9 kg/m3
4755 kPa	988.6 kg/m3
4774.4 kPa	988.7 kg/m3
4781.5 kPa	988.6 kg/m3
4786.9 kPa	988.6 kg/m3
4792.4 kPa	988.5 kg/m3
4799.3 kPa	988.6 kg/m3
4804.7 kPa	988.7 kg/m3
4810.6 kPa	988.6 kg/m3
4816.1 kPa	988.7 kg/m3
4823 kPa	988.6 kg/m3
4828.9 kPa	988.7 kg/m3
4834.3 kPa	988.7 kg/m3
4841.2 kPa	988.6 kg/m3
4847.3 kPa	988.7 kg/m3
4853.2 kPa	988.7 kg/m3
4858.7 kPa	988.6 kg/m3
4865.8 kPa	988.6 kg/m3
4871.7 kPa	988.8 kg/m3
4877.4 kPa	988.7 kg/m3
4884.1 kPa	988.6 kg/m3
4890 kPa	988.7 kg/m3
4895.9 kPa	988.8 kg/m3
4902.8 kPa	988.7 kg/m3
4908.7 kPa	988.8 kg/m3
4914.6 kPa	988.7 kg/m3
4920.6 kPa	988.8 kg/m3
4927.9 kPa	988.7 kg/m3
4934 kPa	988.7 kg/m3
4940 kPa	988.7 kg/m3
4946.3 kPa	988.7 kg/m3
4953 kPa	988.7 kg/m3
4959.8 kPa	988.6 kg/m3
4965.7 kPa	988.6 kg/m3
4971.9 kPa	988.7 kg/m3
4978 kPa	988.8 kg/m3
4985.2 kPa	988.8 kg/m3
4991.3 kPa	988.8 kg/m3
4997.3 kPa	988.9 kg/m3
5004.4 kPa	988.8 kg/m3
5010.7 kPa	988.7 kg/m3
5016.9 kPa	988.8 kg/m3
5023.1 kPa	988.7 kg/m3
5031.1 kPa	988.7 kg/m3
5036.4 kPa	988.8 kg/m3
5043.4 kPa	988.8 kg/m3
5049.8 kPa	988.8 kg/m3
5057 kPa	988.9 kg/m3
5063.3 kPa	988.7 kg/m3
5069.3 kPa	988.8 kg/m3
5075.9 kPa	988.8 kg/m3
5083.3 kPa	988.9 kg/m3
5089.6 kPa	988.9 kg/m3
5095.8 kPa	988.8 kg/m3
5103.7 kPa	988.7 kg/m3
5110 kPa	988.8 kg/m3
5116.5 kPa	988.9 kg/m3
5122.9 kPa	988.8 kg/m3
5129 kPa	988.9 kg/m3
5137 kPa	988.9 kg/m3
5192 kPa	988.9 kg/m3
5198.7 kPa	988.9 kg/m3
5206.7 kPa	989 kg/m3
5213.1 kPa	989 kg/m3
5219.7 kPa	988.8 kg/m3
5227.4 kPa	988.8 kg/m3
5234.2 kPa	988.9 kg/m3
5241.1 kPa	988.9 kg/m3
5247.7 kPa	988.9 kg/m3
5255.5 kPa	988.9 kg/m3
5262.2 kPa	988.9 kg/m3
5269 kPa	988.9 kg/m3
5277.1 kPa	989 kg/m3
5284.2 kPa	988.9 kg/m3
5291.1 kPa	988.9 kg/m3
5298.2 kPa	988.9 kg/m3
5306.7 kPa	988.9 kg/m3
5313.1 kPa	988.9 kg/m3
5319.7 kPa	989 kg/m3
5326.9 kPa	988.9 kg/m3
5335.6 kPa	988.9 kg/m3
5342.3 kPa	988.9 kg/m3
5349.4 kPa	988.9 kg/m3
5357.5 kPa	989 kg/m3
5365 kPa	988.9 kg/m3
5371.7 kPa	989 kg/m3
5380.2 kPa	989 kg/m3
5387.5 kPa	989 kg/m3
5394.7 kPa	988.9 kg/m3
5401.6 kPa	989.1 kg/m3
5410.1 kPa	989 kg/m3
5417.6 kPa	989 kg/m3
5424.8 kPa	988.9 kg/m3
5433.5 kPa	989 kg/m3
5440.6 kPa	989.1 kg/m3
5447.7 kPa	989.1 kg/m3
5455.3 kPa	989 kg/m3
5463.1 kPa	989.1 kg/m3
5471.2 kPa	989.1 kg/m3
5478.6 kPa	989 kg/m3
5485.9 kPa	989.1 kg/m3
5494.7 kPa	989.1 kg/m3
5502.5 kPa	989.1 kg/m3
5509.9 kPa	989 kg/m3
5517.5 kPa	989.1 kg/m3
5526.7 kPa	989.1 kg/m3
5534 kPa	989.2 kg/m3
5541.8 kPa	989.2 kg/m3
5549 kPa	989.1 kg/m3
5565.4 kPa	989.1 kg/m3
5582.7 kPa	989.1 kg/m3
5591.5 kPa	989.2 kg/m3
5599.8 kPa	989.1 kg/m3
5607.5 kPa	989.2 kg/m3
5615.5 kPa	989.2 kg/m3
5624.1 kPa	989.1 kg/m3
5632.1 kPa	989.2 kg/m3
5640 kPa	989.1 kg/m3
5649.2 kPa	989.2 kg/m3
5657 kPa	989.3 kg/m3
5665.1 kPa	989.1 kg/m3
5674.3 kPa	989.1 kg/m3
5682.4 kPa	989.1 kg/m3
5690.4 kPa	989.2 kg/m3
5697.6 kPa	989.2 kg/m3
5705.8 kPa	989.1 kg/m3
5714.2 kPa	989.3 kg/m3
5724.3 kPa	989.1 kg/m3
5732.6 kPa	989.2 kg/m3
5739.8 kPa	989.3 kg/m3
5774.2 kPa	989.2 kg/m3
5783.6 kPa	989.3 kg/m3
5791.5 kPa	989.2 kg/m3
5800 kPa	989.2 kg/m3
5810.4 kPa	989.3 kg/m3
5818.7 kPa	989.3 kg/m3
5827 kPa	989.3 kg/m3
5837 kPa	989.3 kg/m3
5845 kPa	989.2 kg/m3
5854.3 kPa	989.2 kg/m3
5862.6 kPa	989.3 kg/m3
5871.8 kPa	989.2 kg/m3
